# According to the NIST ThermoML archive (doi:10.1021/je300941v):
# ± gives the expanded uncertainty stated by the source.
# Experiment: xn = mol fraction of the nth substance listed
# Conditions: 101 kPa, Liquid, Vibrating tube method
structure (smiles),measurement,setting,value
CCCC[N+]1(C)CCCC1.O=S(=O)([N-]S(=O)(=O)C(F)(F)F)C(F)(F)F + CNC=O,mass density,"293.15 K, x1 = 0.0246",1055.01 ± 0.28 kg/m3
same,mass density,"293.15 K, x1 = 0.0444",1087.36 ± 0.31 kg/m3
same,mass density,"293.15 K, x1 = 0.0743",1124.18 ± 0.34 kg/m3
same,mass density,"293.15 K, x1 = 0.1571",1192.03 ± 0.4 kg/m3
same,mass density,"293.15 K, x1 = 0.2195",1227.49 ± 0.43 kg/m3
same,mass density,"293.15 K, x1 = 0.2768",1253.4 ± 0.45 kg/m3
same,mass density,"293.15 K, x1 = 0.3721",1288.07 ± 0.49 kg/m3
same,mass density,"293.15 K, x1 = 0.4755",1318.98 ± 0.51 kg/m3
same,mass density,"293.15 K, x1 = 0.588",1344.35 ± 0.53 kg/m3
same,mass density,"293.15 K, x1 = 0.631",1352.66 ± 0.54 kg/m3
same,mass density,"293.15 K, x1 = 0.7045",1364.77 ± 0.54 kg/m3
same,mass density,"293.15 K, x1 = 0.7807",1375.58 ± 0.55 kg/m3
same,mass density,"293.15 K, x1 = 0.9067",1390.15 ± 0.57 kg/m3
same,mass density,"298.15 K, x1 = 0.0246",1050.43 ± 0.28 kg/m3
same,mass density,"298.15 K, x1 = 0.0444",1082.72 ± 0.3 kg/m3
same,mass density,"298.15 K, x1 = 0.0743",1119.6 ± 0.33 kg/m3
same,mass density,"298.15 K, x1 = 0.1571",1187.22 ± 0.4 kg/m3
same,mass density,"298.15 K, x1 = 0.2195",1222.75 ± 0.43 kg/m3
same,mass density,"298.15 K, x1 = 0.2768",1248.66 ± 0.45 kg/m3
same,mass density,"298.15 K, x1 = 0.3721",1283.27 ± 0.48 kg/m3
same,mass density,"298.15 K, x1 = 0.4755",1314.25 ± 0.51 kg/m3
same,mass density,"298.15 K, x1 = 0.588",1339.65 ± 0.53 kg/m3
same,mass density,"298.15 K, x1 = 0.631",1347.99 ± 0.53 kg/m3
same,mass density,"298.15 K, x1 = 0.7045",1360 ± 0.54 kg/m3
same,mass density,"298.15 K, x1 = 0.7807",1370.92 ± 0.55 kg/m3
same,mass density,"298.15 K, x1 = 0.9067",1385.5 ± 0.56 kg/m3
same,mass density,"303.15 K, x1 = 0.0246",1045.86 ± 0.28 kg/m3
same,mass density,"303.15 K, x1 = 0.0444",1078.08 ± 0.3 kg/m3
same,mass density,"303.15 K, x1 = 0.0743",1114.93 ± 0.33 kg/m3
same,mass density,"303.15 K, x1 = 0.1571",1182.56 ± 0.4 kg/m3
same,mass density,"303.15 K, x1 = 0.2195",1218 ± 0.43 kg/m3
same,mass density,"303.15 K, x1 = 0.2768",1243.85 ± 0.45 kg/m3
same,mass density,"303.15 K, x1 = 0.3721",1278.56 ± 0.48 kg/m3
same,mass density,"303.15 K, x1 = 0.4755",1309.5 ± 0.51 kg/m3
same,mass density,"303.15 K, x1 = 0.588",1334.96 ± 0.52 kg/m3
same,mass density,"303.15 K, x1 = 0.631",1343.33 ± 0.53 kg/m3
same,mass density,"303.15 K, x1 = 0.7045",1355.4 ± 0.54 kg/m3
same,mass density,"303.15 K, x1 = 0.7807",1366.37 ± 0.55 kg/m3
same,mass density,"303.15 K, x1 = 0.9067",1380.94 ± 0.56 kg/m3
same,mass density,"308.15 K, x1 = 0.0246",1041.32 ± 0.27 kg/m3
same,mass density,"308.15 K, x1 = 0.0444",1073.48 ± 0.3 kg/m3
same,mass density,"308.15 K, x1 = 0.0743",1110.11 ± 0.33 kg/m3
same,mass density,"308.15 K, x1 = 0.1571",1177.83 ± 0.39 kg/m3
same,mass density,"308.15 K, x1 = 0.2195",1213.28 ± 0.42 kg/m3
same,mass density,"308.15 K, x1 = 0.2768",1239.09 ± 0.44 kg/m3
same,mass density,"308.15 K, x1 = 0.3721",1273.79 ± 0.48 kg/m3
same,mass density,"308.15 K, x1 = 0.4755",1304.78 ± 0.5 kg/m3
same,mass density,"308.15 K, x1 = 0.588",1330.34 ± 0.52 kg/m3
same,mass density,"308.15 K, x1 = 0.631",1338.74 ± 0.52 kg/m3
same,mass density,"308.15 K, x1 = 0.7045",1350.82 ± 0.53 kg/m3
same,mass density,"308.15 K, x1 = 0.7807",1361.76 ± 0.54 kg/m3
same,mass density,"308.15 K, x1 = 0.9067",1376.4 ± 0.55 kg/m3
same,mass density,"313.15 K, x1 = 0.0246",1036.71 ± 0.27 kg/m3
same,mass density,"313.15 K, x1 = 0.0444",1068.79 ± 0.29 kg/m3
same,mass density,"313.15 K, x1 = 0.0743",1105.37 ± 0.32 kg/m3
same,mass density,"313.15 K, x1 = 0.1571",1173.12 ± 0.39 kg/m3
same,mass density,"313.15 K, x1 = 0.2195",1208.51 ± 0.42 kg/m3
same,mass density,"313.15 K, x1 = 0.2768",1234.35 ± 0.44 kg/m3
same,mass density,"313.15 K, x1 = 0.3721",1269.04 ± 0.47 kg/m3
same,mass density,"313.15 K, x1 = 0.4755",1300.03 ± 0.5 kg/m3
same,mass density,"313.15 K, x1 = 0.588",1325.69 ± 0.52 kg/m3
same,mass density,"313.15 K, x1 = 0.631",1334.09 ± 0.52 kg/m3
same,mass density,"313.15 K, x1 = 0.7045",1346.19 ± 0.53 kg/m3
same,mass density,"313.15 K, x1 = 0.7807",1357.23 ± 0.54 kg/m3
same,mass density,"313.15 K, x1 = 0.9067",1371.81 ± 0.55 kg/m3
same,mass density,"318.15 K, x1 = 0.0246",1032 ± 0.27 kg/m3
same,mass density,"318.15 K, x1 = 0.0444",1064.04 ± 0.29 kg/m3
same,mass density,"318.15 K, x1 = 0.0743",1100.74 ± 0.32 kg/m3
same,mass density,"318.15 K, x1 = 0.1571",1168.24 ± 0.39 kg/m3
same,mass density,"318.15 K, x1 = 0.2195",1203.7 ± 0.42 kg/m3
same,mass density,"318.15 K, x1 = 0.2768",1229.57 ± 0.44 kg/m3
same,mass density,"318.15 K, x1 = 0.3721",1264.27 ± 0.47 kg/m3
same,mass density,"318.15 K, x1 = 0.4755",1295.32 ± 0.5 kg/m3
same,mass density,"318.15 K, x1 = 0.588",1320.95 ± 0.51 kg/m3
same,mass density,"318.15 K, x1 = 0.631",1329.42 ± 0.52 kg/m3
same,mass density,"318.15 K, x1 = 0.7045",1341.54 ± 0.52 kg/m3
same,mass density,"318.15 K, x1 = 0.7807",1352.53 ± 0.53 kg/m3
same,mass density,"318.15 K, x1 = 0.9067",1367.24 ± 0.55 kg/m3
same,mass density,"323.15 K, x1 = 0.0246",1027.24 ± 0.26 kg/m3
same,mass density,"323.15 K, x1 = 0.0444",1059.25 ± 0.3 kg/m3
same,mass density,"323.15 K, x1 = 0.0743",1095.89 ± 0.33 kg/m3
same,mass density,"323.15 K, x1 = 0.1571",1163.34 ± 0.39 kg/m3
same,mass density,"323.15 K, x1 = 0.2195",1198.78 ± 0.41 kg/m3
same,mass density,"323.15 K, x1 = 0.2768",1224.76 ± 0.43 kg/m3
same,mass density,"323.15 K, x1 = 0.3721",1259.52 ± 0.47 kg/m3
same,mass density,"323.15 K, x1 = 0.4755",1290.63 ± 0.49 kg/m3
same,mass density,"323.15 K, x1 = 0.588",1316.2 ± 0.51 kg/m3
same,mass density,"323.15 K, x1 = 0.631",1324.65 ± 0.51 kg/m3
same,mass density,"323.15 K, x1 = 0.7045",1336.77 ± 0.52 kg/m3
same,mass density,"323.15 K, x1 = 0.7807",1347.89 ± 0.53 kg/m3
same,mass density,"323.15 K, x1 = 0.9067",1362.53 ± 0.54 kg/m3
